In this assay the test system is 138582-337-R-J1-PDC complex spheroid viability. Kind of assay: Anticancer human tumor 138582-337-R-J1-PDC patient-derived Merkel cell tumor cell line growth inhibition. As to conditions: for viability, T/C: stronger effect = lower value. From the text:
Multicellular complex tumor spheroid response to LSD1 Inhibitor Iadademstat in combination with a variety of drugs and investigational agents in selected tumor cell lines
The current study was undertaken to assess response to LSD1 inhibitors in combination with standard-of-care drugs and investigational agents in solid tumor complex spheroid models as well as in the K-562 leukemia. Complex spheroids include a stromal component modeled by human endothelial cells (HUVEC) and fibroblasts modeled by human mesenchymal stem cells (MSCs). The concentration ranges selected for each drug and investigational agent were based upon clinically achievable concentrations if the clinical Cmax of the agent was known.
Compounds. The drugs and investigational agents used in this study are listed on Table 1. All of the agents used, including staurosporine (NSC755774) and gemcitabine (NSC613327), were obtained from the Developmental Therapeutics Program, NCI. FDA-approved anticancer drugs are available from the NCI at http://dtp.nci.nih.gov/branches/dscb/oncology_drugset_explanation.html. Drugs and investigational agents were >95% pure by proton nuclear magnetic resonance (NMR) and liquid chromatography/mass spectrometry (LC/MS). Stock solutions were prepared at 400x in DMSO, stored at -70 degrees C, and diluted in fresh medium prior to their use. The final concentration of DMSO in cell culture wells never exceeded 0.25% (v/v). The FDA-approved anticancer drug set is available from the Developmental Therapeutics Program at https://dtp.cancer.gov/organization/dscb/obtaining/available_plates.htm. All drugs and investigational agents were tested over a range starting from a high concentration at or near the clinical Cmax and decreasing in half-log increments. If the clinical Cmax for an agent had not been determined, the highest concentration tested was 10 microM.
Cell Lines. The patient-derived cancer cell (PDC) lines: 292921-168-R-J2-PDC, K24384-001-R-PDC, and 521955-158-R2-J5-PDC pancreatic carcinomas, 556581-035-R-J1 ovarian carcinoma, 324938-238-R-J1-PDC, 855422-203-R-J1-PDC and 883617-216-R-J1-PDC urothelial bladder carcinomas, 743489-274-T-PDC renal cell carcinoma, 138582-R-J1 Merkel cell tumor, K60290-347-R-J1 and K57222-313-R-J1-PDC glioblastomas, 653999-131-R-J2-PDC, LG0703-F948-PDC, and 349418-098-R-PDC non-small cell lung carcinomas, 885512-296-R-J2-PDC, 171881-019-R-J1-PDC breast carcinomas and 186277-243-T-J2-PDC and 233499-124-R-J2-PDC colon carcinomas were obtained from the NCI Patient-Derived Models Repository (PDMR, https://pdmr.cancer.gov). The established cell lines NCI/ADR-RES (RRID:CVCL_14520 and OVCAR-5 (RRID:CVCL_1628) ovarian carcinomas, 786-O (RRID:CVCL_1051) and A498 (RRID:CVCL_A498) renal cell carcinoma, NCI-H211 (ATCC, cat. CRL-5824; RRID:CVCL_1529), NCI-H196 (ATCC, cat. CRL-5823, RRID:CVCL_1509), SW 1271 (ATCC, cat. CRL-2177, RRID:CVCL_1716) and NCI-H1876 (ATCC, cat. CRL-5902, RRID:CVCL_1503) small cell lung carcinomas, MDA-MB-231 (RRID:CVCL_0062) and MDA-MB-468 (RRID:CVCL_0419)breast carcinomas (10-12). Pooled donor human umbilical vein endothelial cells (HUVEC, Lonza, cat. CC-2519) and human mesenchymal stem cells (hMSC, Lonza, cat. PT-2501) were purchased from Lonza (Walkersville, MD).
Cell Culture. All cells were maintained in an incubator at 37 degrees C and 5% CO2 with 95% humidity. The PDC lines were cultured according to standard operating procedures established by the NCI PDMR (https://pdmr.cancer.gov). Briefly all PDCs were thawed and cultured in Matrigel-coated flasks prepared with a working solution of 1X Ham's F-12 nutrient mix, without supplementation (Invitrogen, Waltham, MA, cat. 11765054), 100 U/mL penicillin-streptomycin (Invitrogen, cat. 15140122), and 2.5% Matrigel (Corning Inc., Corning, NY, cat. 354248) for the first three passages. […]

Setting [1] is: curve of first compound, second compound 0.1 µM.
Where [2] appears, read: curve of first compound, second compound 0.316 µM.
Setting [3] is: curve of first compound, second compound 1 µM.
Where [4] appears, read: curve of first compound, second compound 3.16 µM.
The mark [5] stands for this setting: curve of first compound, second compound 10 µM.

Each structure is given as a SMILES string. “And” between values parts separate entries of the source, which are not always exact repeats. Identical values can stand only once. Bounds are passed on as bounds.

Here are results for five compounds from PubChem BioAssay AID1918931 (Molecular Pharmacology Branch, DTP, NCI, 2023).

Broadly, the IC50 is the concentration that gives 50% inhibition. What is called viability, T/C is the result in the treated group divided by that in the control group, in per cent.
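Also: spheroids exposed to agents for 7 days.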

With `CC1COCCN1c1cc(-c2ccnn2C)c2ccnc(-c3ccn[nH]3)c2n1` (stereo unspecified) + NC1CCC(NC2CC2c2ccccc2)CC1, the IC50 came out at 0.441 µM under setting [1]; 0.231 µM under setting [2]; 0.454 µM under setting [3]; 0.332 µM under setting [4]; 0.332 µM under setting [5]. Besides, the viability, T/C reads like this: (second compound 0.1 µM, first compound 0.00316 µM) 90.8%; (second compound 0.1 µM, first compound 0.01 µM) 91.8%; (second compound 0.1 µM, first compound 0.0316 µM) 77.4%; (second compound 0.1 µM, first compound 0.1 µM) 75.8%; (second compound 0.1 µM, first compound 0.316 µM) 53.8%; (second compound 0.1 µM, first compound 1 µM) 36.7%. Besides, the viability, T/C was 76.9% (second compound 0.316 µM, first compound 0.00316 µM); 104% (second compound 0.316 µM, first compound 0.01 µM); 91.3% (second compound 0.316 µM, first compound 0.0316 µM); 65% (second compound 0.316 µM, first compound 0.1 µM); 47.9% (second compound 0.316 µM, first compound 0.316 µM); 38.2% (second compound 0.316 µM, first compound 1 µM). Besides, the viability, T/C was 110% (second compound 1 µM, first compound 0.00316 µM); 101% (second compound 1 µM, first compound 0.01 µM); 80% (second compound 1 µM, first compound 0.0316 µM); 70% (second compound 1 µM, first compound 0.1 µM); 50.3% (second compound 1 µM, first compound 0.316 µM); 44.7% (second compound 1 µM, first compound 1 µM). The viability, T/C is 89% (second compound 3.16 µM, first compound 0.00316 µM); 77.9% (second compound 3.16 µM, first compound 0.01 µM); 77.3% (second compound 3.16 µM, first compound 0.0316 µM); 69.2% (second compound 3.16 µM, first compound 0.1 µM); 47.9% (second compound 3.16 µM, first compound 0.316 µM); 40.1% (second compound 3.16 µM, first compound 1 µM). The viability, T/C was 75.7% (second compound 10 µM, first compound 0.00316 µM); 73.4% (second compound 10 µM, first compound 0.01 µM); 72.6% (second compound 10 µM, first compound 0.0316 µM); 67.4% (second compound 10 µM, first compound 0.1 µM); 50.2% (second compound 10 µM, first compound 0.316 µM); 42.6% (second compound 10 µM, first compound 1 µM).
Regarding `O=C(C=Cc1cccc(S(=O)(=O)Nc2ccccc2)c1)NO` + NC1CCC(NC2CC2c2ccccc2)CC1, the IC50 worked out at 0.58 µM under setting [1]; 0.678 µM under setting [2]; 0.562 µM under setting [3]; 0.483 µM under setting [4]; 0.408 µM under setting [5]. For the same compound, the viability, T/C was 82.7% (second compound 0.1 µM, first compound 0.00949 µM); 90.2% (second compound 0.1 µM, first compound 0.03 µM); 96% (second compound 0.1 µM, first compound 0.0949 µM); 75.3% (second compound 0.1 µM, first compound 0.3 µM); 30.4% (second compound 0.1 µM, first compound 0.949 µM); 2.19% (second compound 0.1 µM, first compound 3 µM). For the same compound, the viability, T/C runs as follows: (second compound 0.316 µM, first compound 0.00949 µM) 69.6%; (second compound 0.316 µM, first compound 0.03 µM) 89.3%; (second compound 0.316 µM, first compound 0.0949 µM) 95.8%; (second compound 0.316 µM, first compound 0.3 µM) 93.6%; (second compound 0.316 µM, first compound 0.949 µM) 34.7%; (second compound 0.316 µM, first compound 3 µM) 2.29%. Also, the viability, T/C (second compound 1 µM, first compound 0.00949 µM) is 85.3%; the viability, T/C (second compound 1 µM, first compound 0.03 µM) was 92.6%; the viability, T/C (second compound 1 µM, first compound 0.0949 µM) was 97.8%; the viability, T/C (second compound 1 µM, first compound 0.3 µM) is 66.5%; the viability, T/C (second compound 1 µM, first compound 0.949 µM) was 34.1%; the viability, T/C (second compound 1 µM, first compound 3 µM) was 1.94%. In addition, the viability, T/C (second compound 3.16 µM, first compound 0.00949 µM) was 76.5%; the viability, T/C (second compound 3.16 µM, first compound 0.03 µM) was 92.3%; the viability, T/C (second compound 3.16 µM, first compound 0.0949 µM) was 79.5%; the viability, T/C (second compound 3.16 µM, first compound 0.3 µM) was 64.7%; the viability, T/C (second compound 3.16 µM, first compound 0.949 µM) was 28.7%; the viability, T/C (second compound 3.16 µM, first compound 3 µM) was 0.44%. In addition, the viability, T/C was 73.9% (second compound 10 µM, first compound 0.00949 µM); 77.6% (second compound 10 µM, first compound 0.03 µM); 82.2% (second compound 10 µM, first compound 0.0949 µM); 52.3% (second compound 10 µM, first compound 0.3 µM); 29.9% (second compound 10 µM, first compound 0.949 µM); 0.47% (second compound 10 µM, first compound 3 µM).
As to `CCN(c1cc(-c2ccc(CN3CCOCC3)cc2)cc(C(=O)NCc2c(C)cc(C)[nH]c2=O)c1C)C1CCOCC1`, the viability, T/C was 86.8% and 93.2% (compound 0.00949 µM); 103% and 81.7% (compound 0.03 µM); 82.1% and 70.6% (compound 0.0949 µM); 95.9% and 76.5% (compound 0.3 µM); 95.5% and 69.7% (compound 0.949 µM); 99.3% and 57.8% (compound 3 µM). The IC50 (curve of compound) was over 3 µM.
Take `NS(=O)(=O)OCC1CC(n2ccc3c(NC4CCc5ccccc54)ncnc32)CC1O` (stereo unspecified): the viability, T/C (compound 0.00949 µM) is 96% and 74.9%; the viability, T/C (compound 0.03 µM) was 104% and 63.2%; the viability, T/C (compound 0.0949 µM) was 93.9% and 50.6%; the viability, T/C (compound 0.3 µM) was 67.3% and 30.4%; the viability, T/C (compound 0.949 µM) was 28% and 26.4%; the viability, T/C (compound 3 µM) was 27.5% and 32.5%. The IC50 (curve of compound) was 0.504 µM and 0.082 µM.
On to `CCc1c2c(nc3ccc(O)cc13)-c1cc3c(c(=O)n1C2)COC(=O)[C@]3(O)CC`, for which the viability, T/C is, setting by setting: (compound 0.000949 µM) 71.5% and 50.2%; (compound 0.003 µM) 68.2% and 39%; (compound 0.00949 µM) 48.7% and 26.2%; (compound 0.03 µM) 11.6% and 0.27%; (compound 0.0949 µM) 0.5% and 0.83%; (compound 0.3 µM) 0.52% and 0.33%. The IC50 (curve of compound) is 0.00876 µM and < 0.000949 µM.
